Data set [1] can be described thus: Partitioning of active into washed safflower oil bodies (free oil / total oil extraction, HPLC or absorbance). The following applies: two-solvent loading, incubated overnight at 34-37° C. (CP 34-42° C.). The class given is physicochemical, safflower (Carthamus tinctorius). More on the design: level of active incorporated into the oil bodies as a percentage of dry weight: concentration or dose not given beside the values. An excerpt: Hexane extraction may be used to determine the amount of active present in the free oil (free oil is defined as oil not contained within oil bodies. Note that the intact oil bodies are largely resistant to extraction by hexane alone). (Tzen et al. (1997) J. Biochem 121: 762-768.) Once the free oil has been removed from the active/oil body fraction, an analysis of the total remaining oil may be performed using for example, hexane:isopropanol, chloroform, or chloroform:methanol solution extraction. The amount of active present in both the free oil fraction and the total oil fraction can be determined by a number of methods including, but not limited to, high performance liquid chromatography (HPLC), spectrophotometry, fluorescence, or activity assays depending on the active. By comparing the amount of active in both the free oil fraction and the total oil fraction the average amount of active incorporated into the intact oil bodies can be determined. In general, the efficiency of partitioning of the active into intact oil bodies can range from about 10 to about 99.9%. More typically however the efficiency of partitioning of the active into intact oil bodies will range from about 50 to about 99% and most typically from about 90 to about 99.
Washed safflower oil bodies were prepared as described in example 1. Oil bodies were preserved with 0.1 % Neolone 950 and 0.1 % glycacil L. Clobetasol propionate (CP) (Supplier-Sigma) was weighed (12-30 mg) into a clean and dry 16×100 mm screw-cap Pyrex test tube and mixed with 300 μl of isopropanol then 200 mg of safflower oil. The combined sample was vortexed and subsequently incubated at 34° C. for 20 minutes. After incubation, the sample was re-vortexed then dried under nitrogen for 20 minutes to remove the isopropanol. One ml of washed high dry weight oil bodies were added to the CP/safflower oil mixture at room temperature, centrifuged briefly to pellet contents to allow for thorough mixing, vortexed and further incubated at 34-42° C. overnight in an air tight tube to allow for incorporation of the CP and safflower oil into the oil bodies. A hexane extraction was used to determine the amount of CP present in the free oil (free oil is defined as oil not contained within oil bodies. Note that the intact oil bodies are largely resistant to extraction by hexane alone but all hexane extractions of loaded oil bodies must be corrected for damage done to intact oil bodies by the hexane through corrections using free oil values obtained from unloaded oilbodies). Three ml of hexane are added to the tubes and the tubes are shaken to mix 32 times. The samples are centrifuged in a swinging bucket clinical centrifuge at 3220×g for one minute to separate hexane from the oil body-aqueous phase. Note that the free oil will remain in the hexane layer (top). The hexane layer is removed to another tube and the hexane extraction is repeated on the remaining CP/oil body mixture. Once the majority of the solvent from the second extraction is added to the tube containing the first extract, the hexane containing tube is transferred to a heating block. The hexane was evaporated by subjecting the tubes to a gentle stream of high purity N2 gas while heating the block to 40-45° C. for at least 1.5 hours. Once the free oil was removed from the CP/oil body fraction, an analysis of the total remaining oil was performed. The remaining total oil in intact oil bodies was determined by adding 4 ml of a 3:2 hexane:isopropanol solution (HIP) and shaking to mix vigorously until all of the oil was dissolved in the HIP solvent (about 10-20 seconds). This was followed by the addition of 2.5 ml of 6.67% Na2SO4 (w/v) to the tube and the tube was shaken for another 10 seconds. Phase separation is facilitated by centrifugation for 2 minutes at 3220×g in a swinging bucket clinical centrifuge. The organic or upper phase is removed to a second test tube using a Pasteur pipette while avoiding the transfer of the aqueous phase. […]

Data set [2] in a line: Partitioning of phosphatidylcholine into washed safflower oil bodies (fluorescent tracer). It is filed as physicochemical, safflower (Carthamus tinctorius). Conditions: average. The protocol:
Washed safflower oil bodies were prepared as described in example 1. Oil bodies were preserved with 0.1% Neolone 950 and 0.1% glycacil L. Phosphatidylcholine (PC, Supplier-Sigma) was weighed (1-300 mg) into a clean and dry 16×100 mm screw-cap Pyrex test tube. A fluorescent tracer (phosphatidic acid, Supplier-Molecular Probes) was added to the PC. The amount used was 0.05-0.25% the weight of the PC of a 1 mg/ml solution of tracer (resuspended following the manufacturer's instructions). 200 ul of isopropanol was added for every 10 mg of PC to dissolve the PC/tracer mixture. Buffer (50 mM NaH2PO4, pH 8.0) was added to the isopropanol mixture using the same buffer (50 mM NaH2PO4, pH 8.0) as the oilbodies were made in. The volume was equivalent to the volume of oilbodies being loaded. The PC/tracer/isopropanol/buffer mixture was sonicated on high for 15-30 seconds. […] Both the wash fractions and the oilbody fractions were assessed for fluorescence quantities after extraction with hexane using a total oil extraction procedure. The total oil extraction was done by adding 4 mls of a 3:2 hexane:isopropanol solution (HIP) to a measured amount of the sample and shaking to mix vigorously until all of the oil was dissolved in the HIP solvent (about 10-20 seconds). […] A known quantity of isopropanol was added to the extracted fractions and the sample was quantitated using a fluorescent spectrophotometer. […]

In the case of `O=C(O)Cc1ccccc1Nc1c(Cl)cccc1Cl` [diclofenac], in data set [1], the “level of active incorporated into the oil bodies as a percentage of dry weight” value (“level … as a percentage of dry weight” for short) was 1.36% and the “average % of the active added that was incorporated into the intact oil bodies” value (“average %” below) is given as 43.9%.
`CCC(=O)O[C@]1(C(=O)CCl)[C@@H](C)C[C@H]2[C@@H]3CCC4=CC(=O)C=C[C@]4(C)[C@@]3(F)[C@@H](O)C[C@@]21C` [clobetasol propionate, (11β,16β)-21-chloro-9-fluoro-11-hydroxy-16-methyl-17-(1-oxopropoxy)pregna-1,4-diene-3,20-dione]: in data set [1], the “level … as a percentage of dry weight” value was 0.316% and the “average %” value is on record as 94.7%.
In the case of Phosphatidylcholine [PC], the “amount of PC loaded in to the membrane of the oil body, % of the dry weight of the oil body” value in data set [2] (isopropanol/phosphate buffer pH 8.0, 37° C., without stearylamine) is listed as 0.12%; in data set [2] (stearylamine included in PC/tracer mixture at approximately 30% of the amount of PC), 1.25%.
`CCCCNc1ccc(C(=O)OCCN(C)C)cc1` [tetracaine, 4-(butylamino)-Benzoic acid, 2-(dimethylamino)ethyl ester]: in data set [1], the “level … as a percentage of dry weight” value is recorded as 2.43% and the “average %” value was 90.8%.
The corresponding values for `O=C1c2c(O)cccc2Cc2cccc(O)c21` [dithranol, 1,8-Dihydroxy-9(10H)-anthracenone] are 0.253% and 97.3%.
